Results as given in ChEMBL document CHEMBL1152123, “11-Substituted 2,3-dimethoxy-8,9-methylenedioxybenzo[i]phenanthridine derivatives as novel topoisomerase I-targeting agents” (Bioorg Med Chem, 2008).

Columns and labels:
Assay type in all cases: functional, cell-based
[1] = Cytotoxicity against human RPMI8402 cells by MTT method; conditions: RPMI 8402
[2] = Cytotoxicity against camptothecin-resistant human CPT-K5 cells by MTT method
P388 [3] = assay: Cytotoxicity against mouse P388 cells by MTT method
P388 [4] = assay: cells; conditions: Mus musculus
[5] = Cytotoxicity against human KB3-1 cells by MTT method; conditions: KB 3-1
[6] = Cytotoxicity against human KBV1 cells by MTT method; conditions: KB-V1
[7] = Cytotoxicity against human KBH5.0 cells by MTT method; conditions: KBH5.0 cell

Row | SMILES | IC50 [1] | IC50 [2] | IC50 (P388 [3]) | IC50 (P388 [4]) | IC50 [5] | IC50 [6] | IC50 [7]
1 | COc1cc2cc(CCN)c3c4cc5c(cc4ncc3c2cc1OC)OCO5 | 32 nM | 200 nM | 14 nM | 180 nM | 20 nM | 500 nM | 110 nM
2 | CNC(=O)c1cc2cc(OC)c(OC)cc2c2cnc3cc4c(cc3c12)OCO4 | 280 nM | > 10000 nM | – | > 10000 nM | 230 nM | 420 nM | 480 nM
3 | COc1cc2c(=O)n(CCN(C)C)c3c4cc5c(cc4ncc3c2cc1OC)OCO5 | – | – | – | 230 nM | 5 nM | 5 nM | –
4 | COc1cc2cc(/C=C/CN(C)C)c3c4cc5c(cc4ncc3c2cc1OC)OCO5 | 35 nM | 350 nM | 40 nM | 350 nM | 30 nM | 330 nM | 70 nM
5 | CC[C@@]1(O)C(=O)OCc2c1cc1n(c2=O)Cc2cc3c(CN(C)C)c(O)ccc3nc2-1 [TOPOTECAN] | 210 nM | – | – | > 10000 nM | 40 nM | 440 nM | –
6 | COc1cc2cc(CC[N+](=O)[O-])c3c4cc5c(cc4ncc3c2cc1OC)OCO5 | 60 nM | > 10000 nM | 70 nM | > 10000 nM | 150 nM | 360 nM | 320 nM
7 | CCc1c2c(nc3ccc(OC(=O)N4CCC(N5CCCCC5)CC4)cc13)-c1cc3c(c(=O)n1C2)COC(=O)[C@]3(O)CC [IRINOTECAN] | – | – | – | – | 680 nM | 40000 nM | 7400 nM
8 | COc1cc2cc(/C=C/[N+](=O)[O-])c3c4cc5c(cc4ncc3c2cc1OC)OCO5 | 550 nM | > 10000 nM | 180 nM | 10000 nM | 180 nM | 450 nM | 420 nM
9 | COc1cc2cc(CN)c3c4cc5c(cc4ncc3c2cc1OC)OCO5 | 120 nM | 2100 nM | 26 nM | 300 nM | 30 nM | 160 nM | 210 nM
10 | CCOC(=O)c1cc2cc(OC)c(OC)cc2c2cnc3cc4c(cc3c12)OCO4 | 10000 nM | > 10000 nM | 4000 nM | > 10000 nM | > 10000 nM | > 10000 nM | > 10000 nM
11 | COc1cc2cc(CN(C)C)c3c4cc5c(cc4ncc3c2cc1OC)OCO5 | 100 nM | 2700 nM | 100 nM | 2000 nM | 60 nM | 250 nM | 290 nM
12 | COc1cc2cc(C(N)=O)c3c4cc5c(cc4ncc3c2cc1OC)OCO5 | 140 nM | > 10000 nM | 35 nM | > 10000 nM | 55 nM | 400 nM | 2700 nM
13 | COc1cc2cc(C=O)c3c4cc5c(cc4ncc3c2cc1OC)OCO5 | 100 nM | > 10000 nM | 120 nM | 10000 nM | 130 nM | 300 nM | 290 nM
14 | COc1cc2cc(C(=O)N(C)C)c3c4cc5c(cc4ncc3c2cc1OC)OCO5 | 1600 nM | > 10000 nM | 980 nM | > 10000 nM | 1200 nM | 4000 nM | 3600 nM
15 | COc1cc2cc(CCN(C)C)c3c4cc5c(cc4ncc3c2cc1OC)OCO5 | 20 nM | 330 nM | 15 nM | 180 nM | 21 nM | 60 nM | 40 nM
16 | COc1cc2cc(C(=O)NCCN(C)C)c3c4cc5c(cc4ncc3c2cc1OC)OCO5 | 35 nM | 630 nM | 15 nM | 260 nM | 27 nM | 1400 nM | 200 nM
17 | CC[C@@]1(O)C(=O)OCc2c1cc1n(c2=O)Cc2cc3ccccc3nc2-1 [CAMPTOTHECIN] | 4 nM | – | 4 nM | > 10000 nM | 15 nM | – | –
18 | COc1cc2cc(CCCN(C)C)c3c4cc5c(cc4ncc3c2cc1OC)OCO5 | 60 nM | 290 nM | 40 nM | 200 nM | 35 nM | 400 nM | 130 nM
19 | COc1cc2cc(CO)c3c4cc5c(cc4ncc3c2cc1OC)OCO5 | 120 nM | > 10000 nM | 60 nM | > 10000 nM | 150 nM | 400 nM | 400 nM
